Data on 13 molecules can be found in article PMC11983343, “Synthesis of Thiazole-methylsulfonyl Derivatives, X-ray Study, and Investigation of Their Carbonic Anhydrase Activities: In Vitro and In Silico Potentials” (ACS Omega, 2025).

One test concerns the target T1, hCA I (Homo sapiens, UniProt P00915).
T1 construct: hCA I and hCA II isoenzymes purified from human erythrocytes under in vitro conditions; from tissue; host or cells: human erythrocytes
Put plainly: Carbonic anhydrase I inhibition assay (esterase method, p-nitrophenyl acetate, 348 nm). The test is classed as biochemical. The note with it: hCA I purified from human erythrocytes. The source says:
(§1) The esterase method was used to investigate the effects of the molecule on hCA isoenzymes.[44] This method is based on the activity of hCA for the hydrolysis of p-nitrophenyl acetate as a substrate for the reaction mechanism of p-nitrophenol or p-nitrophenolate. […] Since p-nitrophenyl acetate has very little absorption at this wavelength, it will be used as a blank. The p-nitrophenyl acetate substrate solution used in the experiments will be prepared daily.[45],[46]
(§2) Then, the cuvette content containing enzymes, unlike the blank cuvette, was prepared according to Table 1 and placed in the spectrophotometer device. […] Then, molecules at different concentrations were added one by one, the absorbances at 0 and 3 min were measured again, and their differences were taken.[45],[46] […] The enzyme activity values obtained were converted to % activity, their graphs were drawn according to the different concentrations of the molecules, and the IC50 value, that is, the concentration of molecules that reduced the enzyme activity by half, was found. The values were interpreted.
(§3) For the inhibition study, five different inhibitor concentrations of molecules were used at a fixed substrate concentration, and the inhibitor concentration (IC50) values that reduced the enzyme’s activity by half were determined by drawing % activity–[I] graphs.

For a further test, the target named is T2, hCA II (Homo sapiens, UniProt P00918).
T2 construct: hCA I and hCA II isoenzymes purified from human erythrocytes under in vitro conditions; from tissue; host or cells: human erythrocytes
Put plainly: Carbonic anhydrase II inhibition assay (esterase method, p-nitrophenyl acetate, 348 nm). The test is classed as biochemical. The note with it: hCA II purified from human erythrocytes.
Text: as §1, §2, §3

T1 sequence (P00915 whole entry): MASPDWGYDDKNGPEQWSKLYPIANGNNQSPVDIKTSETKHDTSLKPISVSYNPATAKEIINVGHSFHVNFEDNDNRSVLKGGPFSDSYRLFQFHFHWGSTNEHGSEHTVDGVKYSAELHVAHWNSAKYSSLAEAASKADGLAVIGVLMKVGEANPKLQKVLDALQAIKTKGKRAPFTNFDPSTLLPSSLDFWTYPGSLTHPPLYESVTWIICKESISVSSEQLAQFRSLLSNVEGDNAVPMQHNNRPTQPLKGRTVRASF

In general, IC50 refers to the concentration that gives 50% inhibition. A low value points to higher potency. Consider `CC(=NNc1nc(-c2ccc([N+](=O)[O-])cc2)cs1)c1ccc(S(C)(=O)=O)cc1` [2a, 2-(2-(1-(4-(Methylsulfonyl)phenyl)ethylidene)hydrazinyl)-4-(4-nitrophenyl)thiazole], for which the IC50 against hCA I stood at 39.4 µM; against hCA II it was 70 µM.

On to `COc1ccc(-c2csc(NN=C(C)c3ccc(S(C)(=O)=O)cc3)n2)cc1` [2b, 2-(2-(1-(4-(Methylsulfonyl)phenyl)ethylidene)hydrazinyl)-4-(4-methoxyphenyl)thiazole], for which the results for the half-inhibitory concentration (IC50) at hCA I and against hCA II were 59.8 µM and 76.2 µM, respectively.

Regarding `CC(=NNc1nc(-c2ccc(C#N)cc2)cs1)c1ccc(S(C)(=O)=O)cc1` [2c, 2-(2-(1-(4-(Methylsulfonyl)phenyl)ethylidene)hydrazinyl)-4-(4-cyanophenyl)thiazole], the IC50 against hCA I is 63 µM; on hCA II it was 39.2 µM.

Take `CC(=NNc1nc(-c2ccc(F)cc2)cs1)c1ccc(S(C)(=O)=O)cc1` [2d, 2-(2-(1-(4-(Methylsulfonyl)phenyl)ethylidene)hydrazinyl)-4-(4-fluorophenyl)thiazole]: the IC50 against hCA I was 103 µM; on hCA II, 54.1 µM.

Take `CC(=NNc1nc(-c2ccc(-c3ccccc3)cc2)cs1)c1ccc(S(C)(=O)=O)cc1` [2e, 4-([1,1′-Biphenyl]-4-yl)-2-(2-(1-(4-(methylsulfonyl)phenyl)ethylidene)hydrazinyl)thiazole]: the IC50 was 77.9 µM against hCA I and 40.5 µM on hCA II.

Regarding `CC(=NNc1nc(-c2ccc(Br)cc2)cs1)c1ccc(S(C)(=O)=O)cc1` [2f, 2-(2-(1-(4-(Methylsulfonyl)phenyl)ethylidene)hydrazinyl)-4-(4-bromophenyl)thiazole], the IC50 turned out to be 133 µM on hCA I and 51.3 µM at hCA II.

As for `CC(=NNc1nc(-c2ccc(C)cc2)cs1)c1ccc(S(C)(=O)=O)cc1` [2g, 2-(2-(1-(4-(Methylsulfonyl)phenyl)ethylidene)hydrazinyl)-4-(4-methylphenyl)thiazole], the IC50 against hCA I worked out at 198 µM; against hCA II, 78.8 µM.

On to `CC(=NNc1nc(-c2ccc(Cl)c(Cl)c2)cs1)c1ccc(S(C)(=O)=O)cc1` [2h, 2-(2-(1-(4-(Methylsulfonyl)phenyl)ethylidene)hydrazinyl)-4-(3,4-dichlorophenyl)thiazole], for which the IC50 worked out at 60.8 µM at hCA I and 38.5 µM at hCA II.

Turning to `CC(=NNc1nc(-c2ccc(F)cc2F)cs1)c1ccc(S(C)(=O)=O)cc1` [2i, 2-(2-(1-(4-(Methylsulfonyl)phenyl)ethylidene)hydrazinyl)-4-(2,4-difluorophenyl)thiazole], the IC50 is 52.9 µM against hCA I and 86.6 µM against hCA II.

For the molecule `CC(=NNc1nc(-c2cccc([N+](=O)[O-])c2)cs1)c1ccc(S(C)(=O)=O)cc1` [2j, 2-(2-(1-(4-(Methylsulfonyl)phenyl)ethylidene)hydrazinyl)-4-(3-nitrophenyl)thiazole], the IC50 turned out to be 80.6 µM against hCA I and 64.8 µM at hCA II.

For `CC(=NNc1nc(-c2ccc(Cl)cc2)cs1)c1ccc(S(C)(=O)=O)cc1` [2k, 2-(2-(1-(4-(Methylsulfonyl)phenyl)ethylidene)hydrazinyl)-4-(4-chlorophenyl) thiazole], the figures for the IC50 at hCA I and against hCA II were 58.7 µM and 86.6 µM, respectively.

For `CC(=NNc1nc(-c2ccc(Cl)cc2Cl)cs1)c1ccc(S(C)(=O)=O)cc1` [2l, 2-(2-(1-(4-(Methylsulfonyl)phenyl)ethylidene)hydrazinyl)-4-(2,4-dichlorophenyl)thiazole], the figures for the IC50 against hCA I and on hCA II were 67.9 µM and 71.5 µM, respectively.

`CC(=NNc1nc(-c2ccccc2)cs1)c1ccc(S(C)(=O)=O)cc1` [2m, 2-(2-(1-(4-(Methylsulfonyl)phenyl)ethylidene)hydrazinyl)-4-phenylthiazole]: the IC50 was determined as 44.4 µM on hCA I and 53.3 µM on hCA II.
